Measured values taken from patent US20070037883A1, “Therapeutic compositions” (priority 2003, published 2007).
Entries after “also recorded” stand apart in the source; their conditions may differ.

Columns and labels:
[1] = test system: angiotensin II-induced hypertension; assay: Angiotensin II-induced hypertension, arterial blood pressure; format: in vivo, rats
Protocol: Measurement of arterial blood pressure: Rats are briefly anaesthetized (ketamine 80 mg/kg ip plus xylazine 10 mg/kg ip) and a saline-filled cannula is inserted in a femoral artery. The cannula is connected to a pressure transducer and a chart recorder. When arterial pressure is observed to be stable (within 5 minutes) mean arterial pressure is calculated and recorded.
Angiotensin II-induced experimental hypertension: On Day 0, rats are briefly anaesthetized (ketamine 80 mg/kg ip plus xylazine 10 mg/kg ip) and an osmotic minipump containing either saline or suramin is implanted subcutaneously. The dose rate of suramin is 300 mg/kg per 14 days. On Day 7, rats are again anaesthetized and another minipump containing saline or angiotensin II is implanted subcutaneously. The dose rate of angiotensin II is 5 mg/kg per 7 days. On Day 14, each rat is again anaesthetized and a cannula was inserted into a femoral artery for measurement of blood pressure. Angiotensin II causes a large increase in mean arterial pressure (of approx. 60-80 mmHg) in control rats.
On Day 0, rats were briefly anaesthetized and an osmotic minipump containing either saline or suramin was implanted subcutaneously. The dose rate of suramin was 300 mg/kg per 14 days. On Day 7, rats were again anaesthetized and another minipump containing saline or angiotensin II was implanted subcutaneously. The dose rate of angiotensin II was 5 mg/kg per 7 days. On Day 14, each rat was again anaesthetized and a cannula was inserted into a femoral artery for measurement of blood pressure. Angiotensin II caused a large increase in blood pressure in rats pretreated with saline. In contrast, the increase in blood pressure by angiotensin II was prevented by approximately 60% in rats pretreated with suramin.

[2] = target: T1, Nox4-containing NADPH-oxidase in mouse endothelium (Mus musculus, UniProt Q9JHI8); assay: NADPH-driven NADPH-oxidase activity in mouse endothelium; format: cell-based; conditions: suramin ≦100 μM
T1 construct: Nox4-containing NADPH-oxidase in mouse vascular smooth muscle cells (VSMC, a) and endothelium; endogenous in cells; host or cells: mouse endothelium (preparation not described)
T1 sequence (Q9JHI8 1-578): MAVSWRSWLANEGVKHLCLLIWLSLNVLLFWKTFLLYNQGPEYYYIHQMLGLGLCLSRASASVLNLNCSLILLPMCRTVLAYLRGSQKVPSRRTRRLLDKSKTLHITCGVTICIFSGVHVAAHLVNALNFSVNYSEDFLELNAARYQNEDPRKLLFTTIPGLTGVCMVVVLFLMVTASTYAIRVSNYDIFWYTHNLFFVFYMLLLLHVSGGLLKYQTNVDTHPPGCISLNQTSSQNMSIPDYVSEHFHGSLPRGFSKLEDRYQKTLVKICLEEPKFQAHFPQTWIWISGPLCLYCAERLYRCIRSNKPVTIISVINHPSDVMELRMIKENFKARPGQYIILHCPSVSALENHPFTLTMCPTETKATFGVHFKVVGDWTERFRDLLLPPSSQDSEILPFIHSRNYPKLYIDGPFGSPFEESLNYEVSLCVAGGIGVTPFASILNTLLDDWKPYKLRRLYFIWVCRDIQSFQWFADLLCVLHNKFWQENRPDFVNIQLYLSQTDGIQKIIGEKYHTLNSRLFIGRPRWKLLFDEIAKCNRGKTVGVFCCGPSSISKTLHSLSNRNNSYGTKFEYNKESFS
T1 sequence (Q61462 1-192 partner): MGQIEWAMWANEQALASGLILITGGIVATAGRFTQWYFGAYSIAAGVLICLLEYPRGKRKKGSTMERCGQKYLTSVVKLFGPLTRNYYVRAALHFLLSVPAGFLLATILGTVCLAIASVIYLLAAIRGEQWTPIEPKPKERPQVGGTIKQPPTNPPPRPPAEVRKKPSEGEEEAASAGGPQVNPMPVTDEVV

[3] = target: T2, gp91phox-containing NADPH-oxidase in the mouse macrophage cell line J774 (Mus musculus, UniProt Q61093); assay: NADPH oxidase activity in intact J774 mouse macrophages; format: cell-based; conditions: FIG. 2b
T2 construct: endogenous in cells; host or cells: J774 mouse macrophage cell line (intact cells)
T2 sequence (Q61093 2-570 limits assumed): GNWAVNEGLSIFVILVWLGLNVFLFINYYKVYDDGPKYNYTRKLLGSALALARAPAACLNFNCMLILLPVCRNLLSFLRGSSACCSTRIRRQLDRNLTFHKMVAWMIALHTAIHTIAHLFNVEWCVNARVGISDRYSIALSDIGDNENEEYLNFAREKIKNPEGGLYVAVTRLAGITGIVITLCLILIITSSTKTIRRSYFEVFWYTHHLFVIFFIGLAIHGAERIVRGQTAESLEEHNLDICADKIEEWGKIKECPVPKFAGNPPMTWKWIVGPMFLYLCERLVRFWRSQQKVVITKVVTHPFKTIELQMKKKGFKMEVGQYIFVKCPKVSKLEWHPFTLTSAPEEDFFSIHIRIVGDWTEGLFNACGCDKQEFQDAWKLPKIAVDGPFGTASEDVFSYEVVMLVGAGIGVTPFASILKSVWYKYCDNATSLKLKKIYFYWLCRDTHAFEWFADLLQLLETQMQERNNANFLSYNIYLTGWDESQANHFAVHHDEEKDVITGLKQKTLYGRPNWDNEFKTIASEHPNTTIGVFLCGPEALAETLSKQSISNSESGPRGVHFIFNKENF
T2 sequence (Q61462 1-192 partner): T1 sequence (Q61462 1-192 partner)

[4] = test system: atherosclerotic lesion formation in ApoE−/− mice; assay: Atherosclerotic lesion formation in aortas of fat-fed ApoE mutant mice; format: in vivo, mouse; conditions: high-fat diet, weekly s.c. suramin for 4 months, vs saline
Protocol: ApoE^−/− mice: Whole aortas are isolated and cut open via an incision along the ventral wall [Jiang et al., 2001, supra]. Tissues are rinsed with 60% v/v isopropanol and stained with oil red O (0.5%) for 10 minutes at room temperature. After staining, tissues are rinsed in 60% v/v sopropanol and preserved in 10% v/v neutral buffered formalin. The en face surface of the aorta is then imaged and lesion area (red-stained) quantified using MCID imaging analysis software.
Twelve-week-old ApoE mutant mice were fed a high fat diet for a further 4 months. During this 4 month period, the mice were given weekly subcutaneous injections of saline or suramin. Specifically, mice were initially dosed with two weekly injections of 300 mg/kg suramin. Four weeks later a 25 mg/kg dose of suramin was administered, and then weekly doses of 15 mg/kg suramin were administered for a further 11 weeks. At the end of the treatment period, mice were killed by anaesthetic overdose and the aorta was removed, cleaned of adherent fat on the adventitial surface, and then cut longitudinally along the entire length. […] The en face surface of the aorta was then imaged and lesion area (red-stained) quantified and expressed as a percent of total luminal surface area for each of: total aorta, thoracic aorta, abdominal aorta, and aortic arch. […]

inhibition of 100 μM NADPH-driven activity of Nox4-containing NADPH-oxidase in endothelium [2]: fully inhibits | effect on gp91phox-containing NADPH-oxidase in J774 macrophages / phagocytic cells ([3]; listed as Suramin): little effect
Structure (SMILES): Cc1ccc(C(=O)Nc2ccc(S(=O)(=O)O)c3cc(S(=O)(=O)O)cc(S(=O)(=O)O)c23)cc1NC(=O)c1cccc(NC(=O)Nc2cccc(C(=O)Nc3cc(C(=O)Nc4ccc(S(=O)(=O)O)c5cc(S(=O)(=O)O)cc(S(=O)(=O)O)c45)ccc3C)c2)c1 [suramin]
mean arterial blood pressure of control rats ([1]; suramin 150 mg/kg s.c. per week for 2 weeks, no angiotensin II, ketamine-xylazine anaesthesia, FIG. 15): no effect | prevention of the increase in blood pressure by angiotensin II ([1]; suramin 300 mg/kg per 14 days, angiotensin II 5 mg/kg per 7 days, Day 14): approximately 60% | increase in arterial pressure during angiotensin II administration (in words) ([1]; suramin 1 week prior to and during 1 week of angiotensin II 5 mg/kg s.c., FIG. 15): smaller increase | effect on gp91phox-containing NADPH-oxidase in J774 macrophages / phagocytic cells [3]: does not inhibit; also recorded: ineffective | atherosclerotic lesion area: total aorta, thoracic aorta, abdominal aorta ([4]; FIG. 12): markedly smaller lesion areas; also recorded: smaller lesion area | lesion size in the aortic arch ([4]; FIG. 12b): no effect
